Data: publication PMC12087874, “Biaryl Phosphates and Phosphonates as Selective Inhibitors of the Transcription Factor STAT4” (Angewandte Chemie (International Ed. in English), 2025)
“Also recorded” adds a separate entry of the source.

Target: T1, STAT4 (Homo sapiens, UniProt Q14765)
T1 sequence (Q14765 1-748): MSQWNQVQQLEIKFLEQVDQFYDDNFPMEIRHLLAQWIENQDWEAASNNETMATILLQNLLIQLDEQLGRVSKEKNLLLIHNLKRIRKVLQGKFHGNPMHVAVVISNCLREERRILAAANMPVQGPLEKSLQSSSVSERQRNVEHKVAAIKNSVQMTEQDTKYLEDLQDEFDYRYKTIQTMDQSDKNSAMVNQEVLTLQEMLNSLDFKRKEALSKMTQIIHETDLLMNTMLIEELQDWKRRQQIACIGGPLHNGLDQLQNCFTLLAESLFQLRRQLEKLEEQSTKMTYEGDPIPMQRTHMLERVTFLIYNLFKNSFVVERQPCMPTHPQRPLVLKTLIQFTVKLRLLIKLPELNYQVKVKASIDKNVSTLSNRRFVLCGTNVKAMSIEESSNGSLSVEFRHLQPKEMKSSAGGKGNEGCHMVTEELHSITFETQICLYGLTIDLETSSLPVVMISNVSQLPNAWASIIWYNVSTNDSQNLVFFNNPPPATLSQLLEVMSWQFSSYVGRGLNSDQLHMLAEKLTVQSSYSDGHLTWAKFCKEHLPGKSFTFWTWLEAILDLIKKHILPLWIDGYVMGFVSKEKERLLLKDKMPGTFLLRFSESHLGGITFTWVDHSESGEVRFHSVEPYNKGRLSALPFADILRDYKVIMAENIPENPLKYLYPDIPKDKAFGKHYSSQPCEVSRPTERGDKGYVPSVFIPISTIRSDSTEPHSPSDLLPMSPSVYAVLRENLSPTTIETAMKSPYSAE
Assay: IL-12-induced STAT4 Tyr693 phosphorylation in NK-92 cells (Western blot)
Format: cell-based
Parameters: utilizing cellular lysates from the STAT4‐expressing natural killer cell line NK‐92; endogenous in cells; host or cells: NK-92 (DSMZ)
Conditions: treatment for 2 h (Figure S4)
Procedure: NK-92 cells (DSMZ) were cultured in α-MEM containing 12.5% fetal bovine serum (FBS), 12.5% horse serum, 2 mM L-glutamine, penicillin/streptomycin and 50 U/ml IL -2. […]
The components of cell lysates from treated cells, or heat-treated lysates from CETSA, were separated by SDS-PAGE (10%), transferred to nitrocellulose membrane (Bio-Rad) and detected using monoclonal rabbit primary antibodies (Cell Signaling), α-rabbit-HRP secondary antibody (Dako) and Western Lightning Plus chemiluminescence reagent (Perkin Elmer).
Bands were visualized using an ImageQuant system (GE Healthcare) and quantitated using ImageJ software (NIH). […]
The sitting drop was composed of 0.1 µl protein solution and 0.1 µl reservoir solution. Plates were stored at 19°C in a protein […]
In the first set of experiments, w e tried to crystallize STAT4 as a SUMO -STAT4 fusion protein […]
was cleaved off as described above.
Screening for crystallization conditions for tag-free STAT4 was performed both in the absence or presence of 1 equivalent of 6m or 6h. Since the chosen protein concentration of 3.6 mg/ml appeared to be too low, screening was repeated with a higher concentration of 6.4 mg/ml STAT4 for all conditions (corresponding to 100 µM 6m). Both the SUMO-STAT4 and the tag-free STAT4 preferentially precipitated under conditions containing polyethylene glycol. In one set of experiments, we also screened for conditions in the presence of the high-affinity peptide GY(PO3H2)LPQNID adapted from the IL-12 receptor. However, none of the conditions resulted in the growth of STAT4 crystals (Table S4).

Cc1cc(-c2ccc(C(F)(F)P(=O)(O)O)c(F)c2)cs1 [Compound 8k]
inhibition of IL‐12‐induced STAT4 Tyr693 phosphorylation: unable to inhibit; also recorded: does not inhibit
